The values that follow are results of earlier work, collected in publication PMC4261083, “An atypical residue in the pore of Varroa destructor GABA-activated RDL receptors affects picrotoxin block and thymol modulation” (Insect Biochemistry and Molecular Biology, 2014).

The IC50 is the point on the concentration scale where inhibition reaches its midpoint.

The test system of the data set is Tetranychus RDL receptors. Also noted: method as in Asahi et al., 2014. The following applies: expressed in Xenopus oocytes, ref Asahi et al., 2014, cited from earlier work.

Turning to `N#Cc1nn(-c2c(Cl)cc(C(F)(F)F)cc2Cl)c(N)c1[S+]([O-])C(F)(F)F` (centres unmarked) [fipronil], the “Sensitivity of Tetranychus RDL receptors to fipronil” value is on record as “resistant”.

As for `Cc1cc(C2=NOC(c3cc(Cl)cc(Cl)c3)(C(F)(F)F)C2)ccc1C(=O)NCC(=O)NCC(F)(F)F` (centres unmarked) [fluralaner], for the setting “read-out: IC50 for block of Tetranychus RDL receptors”, the IC50 is about 10 nM.
